Source: patent US6395896B2, “Pyridazine derivatives, manufacturing method and related composition” (Shiseido Co., Ltd., priority 1999, dated 2002)

Test: Colorant stabilization effect (photostabilizer, sunlight exposure)
Parameters: key to Sunlight exposure (80 MJ) Appearance: A: No change; B: No almost change; C: Yes change; key to Sunlight exposure (80 MJ) ΔE: ΔE color difference (Lab) vs. color before sunlight exposure
Method in brief: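 Samples exposed to sunlight (around 80 MJ); appearance change judged visually. Color difference (ΔE) measured by spectrophotometer in Lab coordinates, calculated against the same sample's color before exposure.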

[1] = Blue No. 1 0.00001 wt %, photostabilizer 0.05 wt %
[2] = Blue No. 1 0.00001 wt %, photostabilizer 0.1 wt %
[3] = Blue No. 1 0.00001 wt %, photostabilizer 0.3 wt %
[4] = Blue No. 1 0.0001 wt %, photostabilizer 0.03 wt %
[5] = Blue No. 1 0.0001 wt %, photostabilizer 0.05 wt %
[6] = Blue No. 1 0.0001 wt %, photostabilizer 0.1 wt %
[7] = Green No. 3 0.00001 wt %, photostabilizer 0.03 wt %
[8] = Green No. 3 0.00001 wt %, photostabilizer 0.1 wt %
[9] = Green No. 3 0.00001 wt %, photostabilizer 0.3 wt %
[10] = Green No. 3 0.0001 wt %, photostabilizer 0.02 wt %
[11] = Green No. 3 0.0001 wt %, photostabilizer 0.05 wt %
[12] = Green No. 3 0.0001 wt %, photostabilizer 0.1 wt %
[13] = Red No. 106 0.00001 wt % + Yellow No. 5 0.0001 wt %, photostabilizer 0.03 wt %
[14] = Red No. 106 0.00001 wt % + Yellow No. 5 0.0001 wt %, photostabilizer 0.05 wt %
[15] = Red No. 106 0.00001 wt % + Yellow No. 5 0.0001 wt %, photostabilizer 0.3 wt %
[16] = Red No. 106 0.00001 wt % + Yellow No. 203 0.0001 wt %, photostabilizer 0.05 wt %
[17] = Red No. 106 0.00001 wt % + Yellow No. 203 0.0001 wt %, photostabilizer 0.1 wt %
[18] = Red No. 106 0.00001 wt % + Yellow No. 203 0.0001 wt %, photostabilizer 0.3 wt %
[19] = Red No. 106 0.00001 wt %, photostabilizer 0.05 wt %
[20] = Red No. 106 0.00001 wt %, photostabilizer 0.1 wt %
[21] = Red No. 106 0.00001 wt %, photostabilizer 0.3 wt %
[22] = Red No. 106 0.0001 wt %, photostabilizer 0.03 wt %
[23] = Red No. 106 0.0001 wt %, photostabilizer 0.05 wt %
[24] = Red No. 106 0.0001 wt %, photostabilizer 0.1 wt %
[25] = Red No. 213 0.00001 wt % + Blue No. 1 0.00001 wt %, photostabilizer 0.03 wt %
[26] = Red No. 213 0.00001 wt % + Blue No. 1 0.00001 wt %, photostabilizer 0.05 wt %
[27] = Red No. 213 0.00001 wt % + Blue No. 1 0.00001 wt %, photostabilizer 0.1 wt %
[28] = Red No. 213 0.00001 wt %, photostabilizer 0.03 wt %
[29] = Red No. 213 0.00001 wt %, photostabilizer 0.1 wt %
[30] = Red No. 213 0.00001 wt %, photostabilizer 0.3 wt %
[31] = Red No. 213 0.0001 wt %, photostabilizer 0.03 wt %
[32] = Red No. 213 0.0001 wt %, photostabilizer 0.05 wt %
[33] = Red No. 213 0.0001 wt %, photostabilizer 0.1 wt %
[34] = Red No. 227 0.00001 wt %, photostabilizer 0.05 wt %
[35] = Red No. 227 0.00001 wt %, photostabilizer 0.1 wt %
[36] = Red No. 227 0.00001 wt %, photostabilizer 0.3 wt %
[37] = Red No. 227 0.0001 wt % + Yellow No. 5 0.0001 wt %, photostabilizer 0.03 wt %

SMILES: Oc1nncc(N2CCOCC2)c1N1CCOCC1 [4,5-Dimorpholino-3-hydroxypyridazine]
- Sunlight exposure (80 MJ) Appearance [1]: A
- Sunlight exposure (80 MJ) ΔE [1]: 1.00
- Sunlight exposure (80 MJ) Appearance [2]: A
- Sunlight exposure (80 MJ) ΔE [2]: 0.62
- Sunlight exposure (80 MJ) Appearance [3]: A
- Sunlight exposure (80 MJ) ΔE [3]: 0.25
- Sunlight exposure (80 MJ) Appearance [4]: A
- Sunlight exposure (80 MJ) ΔE [4]: 1.25
- Sunlight exposure (80 MJ) Appearance [5]: A
- Sunlight exposure (80 MJ) ΔE [5]: 1.11
- Sunlight exposure (80 MJ) Appearance [6]: A
- Sunlight exposure (80 MJ) ΔE [6]: 0.70
- Sunlight exposure (80 MJ) Appearance [7]: A
- Sunlight exposure (80 MJ) ΔE [7]: 0.56
- Sunlight exposure (80 MJ) Appearance [8]: A
- Sunlight exposure (80 MJ) ΔE [8]: 0.08
- Sunlight exposure (80 MJ) Appearance [9]: A
- Sunlight exposure (80 MJ) ΔE [9]: 0.02
- Sunlight exposure (80 MJ) Appearance [10]: A
- Sunlight exposure (80 MJ) ΔE [10]: 0.75
- Sunlight exposure (80 MJ) Appearance [11]: A
- Sunlight exposure (80 MJ) ΔE [11]: 0.31
- Sunlight exposure (80 MJ) Appearance [12]: A
- Sunlight exposure (80 MJ) ΔE [12]: 0.06
- Sunlight exposure (80 MJ) Appearance [13]: A
- Sunlight exposure (80 MJ) ΔE [13]: 0.97
- Sunlight exposure (80 MJ) Appearance [14]: A
- Sunlight exposure (80 MJ) ΔE [14]: 0.55
- Sunlight exposure (80 MJ) Appearance [15]: A
- Sunlight exposure (80 MJ) ΔE [15]: 0.12
- Sunlight exposure (80 MJ) Appearance [16]: A
- Sunlight exposure (80 MJ) ΔE [16]: 0.77
- Sunlight exposure (80 MJ) Appearance [17]: A
- Sunlight exposure (80 MJ) ΔE [17]: 0.25
- Sunlight exposure (80 MJ) Appearance [18]: A
- Sunlight exposure (80 MJ) ΔE [18]: 0.11
- Sunlight exposure (80 MJ) Appearance [19]: A
- Sunlight exposure (80 MJ) ΔE [19]: 1.01
- Sunlight exposure (80 MJ) Appearance [20]: A
- Sunlight exposure (80 MJ) ΔE [20]: 0.55
- Sunlight exposure (80 MJ) Appearance [21]: A
- Sunlight exposure (80 MJ) ΔE [21]: 0.12
- Sunlight exposure (80 MJ) Appearance [22]: A
- Sunlight exposure (80 MJ) ΔE [22]: 0.95
- Sunlight exposure (80 MJ) Appearance [23]: A
- Sunlight exposure (80 MJ) ΔE [23]: 0.82
- Sunlight exposure (80 MJ) Appearance [24]: A
- Sunlight exposure (80 MJ) ΔE [24]: 0.43
- Sunlight exposure (80 MJ) Appearance [25]: A
- Sunlight exposure (80 MJ) ΔE [25]: 1.21
- Sunlight exposure (80 MJ) Appearance [26]: A
- Sunlight exposure (80 MJ) ΔE [26]: 0.97
- Sunlight exposure (80 MJ) Appearance [27]: A
- Sunlight exposure (80 MJ) ΔE [27]: 0.73
- Sunlight exposure (80 MJ) Appearance [28]: B
- Sunlight exposure (80 MJ) ΔE [28]: 1.24
- Sunlight exposure (80 MJ) Appearance [29]: A
- Sunlight exposure (80 MJ) ΔE [29]: 0.45
- Sunlight exposure (80 MJ) Appearance [30]: A
- Sunlight exposure (80 MJ) ΔE [30]: 0.12
- Sunlight exposure (80 MJ) Appearance [31]: B
- Sunlight exposure (80 MJ) ΔE [31]: 1.11
- Sunlight exposure (80 MJ) Appearance [32]: A
- Sunlight exposure (80 MJ) ΔE [32]: 0.78
- Sunlight exposure (80 MJ) Appearance [33]: A
- Sunlight exposure (80 MJ) ΔE [33]: 0.32
- Sunlight exposure (80 MJ) Appearance [34]: A
- Sunlight exposure (80 MJ) ΔE [34]: 0.69
- Sunlight exposure (80 MJ) Appearance [35]: A
- Sunlight exposure (80 MJ) ΔE [35]: 0.32
- Sunlight exposure (80 MJ) Appearance [36]: A
- Sunlight exposure (80 MJ) ΔE [36]: 0.11
- Sunlight exposure (80 MJ) Appearance [37]: A
- Sunlight exposure (80 MJ) ΔE [37]: 0.72
